Read-outs that look alike come from different tables or passages of the source. Blank lines part the entries; values can stand above or below the molecule they belong to.
Tests used:
[1] = system: Caco-2 monolayers (Transwell); assay: In vitro drug absorption study, Transwell Caco-2 monolayer, Papp by LC-MS; settings: Caco-2 Transwell, 19-21 days culture, apical pH 6.5 / basolateral pH 7.4 (TB, 10 mM HANKS/HBSS), 10 µM drug in 0.1% DMSO, 2 h, 37°C, static, mean ± SEM, at least three biological replicates
[2] = cited from earlier work
Source text: page 15: Supplementary Table 4. Comparison of apparent permeability in chips using mono-and coculture tubules and Transwell system of 12 model drugs.

[3] = system: Caco-2:HT29-MTX E12 coculture tubules (chip); assay: In vitro drug absorption study, OrganoPlate chip coculture tubules, Papp by LC-MS; settings: OrganoPlate Caco-2:HT29-MTX E12 6:1 coculture tubules, day 4, A-B, apical pH 6.5 / basolateral pH 7.4, 10 µM drug in 0.1% DMSO, 2 h, 37°C, constant flow, mean ± SEM, at least three biological replicates
[4] = system: Caco-2 monoculture tubules (chip); assay: In vitro drug absorption study, OrganoPlate chip monoculture tubules, Papp by LC-MS; settings: OrganoPlate Caco-2 monoculture tubules, day 4, A-B, apical pH 6.5 / basolateral pH 7.4, 10 µM drug in 0.1% DMSO, 2 h, 37°C, constant flow, mean ± SEM, at least three biological replicates
[5] = cited from earlier work; remark: listed apart in the source
Source text: page 17: Supplementary Table 5. Direct statistical comparison of drug transport in Transwells, mono-and coculture tubules of 12 model drugs using an unpaired t-test.

[6] = system: Caco-2 monoculture tubules (chip); assay: Lucifer Yellow leakage after drug exposure, chip monoculture; settings: 100 µM LY co-applied, after 2 h of exposure to 10 µM drug
[7] = system: Caco-2 monolayers (Transwell); assay: Lucifer Yellow leakage after drug exposure, Transwell; settings: 100 µM LY co-applied, after 2 h of exposure to 10 µM drug, Caco-2 Transwell
[8] = system: Caco-2:HT29-MTX E12 coculture tubules (chip); assay: Lucifer Yellow leakage after drug exposure, chip coculture; settings: 100 µM LY co-applied, after 2 h of exposure to 10 µM drug
[9] = system: Caco-2:HT29-MTX E12 coculture tubules; assay: Image based analysis of SNAC induced semaglutide transport; assay type: in vitro ADME, human
Source text: semaglutide (purple) and FITC-dextran (green). Scale bar is 500 µm. Data represent the mean
of at least two biological replicates per condition.

[10] = human, ref Takenaka et al., 2016
[11] = known route of the drug, no reference given

SMILES: NC(=O)N1c2ccccc2C=Cc2ccccc21 [Carbamazepine]
TW Caco-2 Papp (apparent permeability coefficient from A B) [1]: 204.43± 9.20 × 10-6 cm/sec
FA in human % (fraction absorbed in human) ([2]; in vivo): 100%
Chip Caco-2:HT29-MTX E12 Papp (apparent permeability coefficient from A B) [3]: 140.04 ± 6.25 × 10-6 cm/sec
Chip Caco-2 Papp (apparent permeability coefficient from A B) [4]: 0.00021399 cm/s
Transport route [5]: Transcellular
Lucifer Yellow leakage (%) Chip Caco-2 [6]: 0.02%
Lucifer Yellow leakage (%) Transwell [7]: 0.02%
Lucifer Yellow leakage (%) Chip Caco-2:HT29-MTX E12 [8]: 0.01%

SMILES: CN/C(=N/CCSCc1nc[nH]c1C)NC#N [Cimetidine]
TW Caco-2 Papp (apparent permeability coefficient from A B) [1]: 5.08± 1.39 × 10^-6 cm/sec
FA in human % (fraction absorbed in human) [2, 10]: 62%
Chip Caco-2:HT29-MTX E12 Papp (apparent permeability coefficient from A B) [3]: 11.87 ± 3.41 × 10^-6 cm/sec
Chip Caco-2 Papp (apparent permeability coefficient from A B) [4]: 9.79± 3.41 × 10^-6 cm/sec
Transport route [5]: Paracellular
Lucifer Yellow leakage (%) Chip Caco-2 [6]: 0.03%
Lucifer Yellow leakage (%) Transwell [7]: 0.03%
Lucifer Yellow leakage (%) Chip Caco-2:HT29-MTX E12 [8]: 0.02%

SMILES: CC[C@H]1OC(=O)[C@H](C)[C@@H](O[C@H]2C[C@@](C)(OC)[C@@H](O)[C@H](C)O2)[C@H](C)[C@@H](O[C@@H]2O[C@H](C)C[C@H](N(C)C)[C@H]2O)[C@](C)(O)C[C@@H](C)C(=O)[C@H](C)[C@@H](O)[C@]1(C)O [Erythromicin]
TW Caco-2 Papp (apparent permeability coefficient from A B) [1]: 1.2e-06 cm/s
FA in human % (fraction absorbed in human) ([2]; human, ref Youhanna and Lauschke, 2021): 35%
Chip Caco-2:HT29-MTX E12 Papp (apparent permeability coefficient from A B) [3]: 0.99 ± 0.32 × 10^-6 cm/sec
Chip Caco-2:HT29-MTX E12 Papp (apparent permeability coefficient from A B) ([3]; listed as Erythromycin): 9.9e-07 cm/s
Chip Caco-2 Papp (apparent permeability coefficient from A B) [4]: 1.33e-06 cm/s
Lucifer Yellow leakage (%) Chip Caco-2 [6]: 0.04%
Lucifer Yellow leakage (%) Transwell [7]: 0.03%
Lucifer Yellow leakage (%) Chip Caco-2:HT29-MTX E12 [8]: 0.01%

SMILES: CN(C)C(=O)C(CCN1CCC(O)(c2ccc(Cl)cc2)CC1)(c1ccccc1)c1ccccc1 [Loperamide]
TW Caco-2 Papp (apparent permeability coefficient from A B) [1]: 58.60± 8.62 × 10^-6 cm/sec
Chip Caco-2:HT29-MTX E12 Papp (apparent permeability coefficient from A B) [3]: 2.75 ± 1.13 × 10^-6 cm/sec
Chip Caco-2 Papp (apparent permeability coefficient from A B) [4]: 11.03± 1.62 × 10^-6 cm/sec
Lucifer Yellow leakage (%) Chip Caco-2 [6]: 0.68%
Lucifer Yellow leakage (%) Transwell [7]: 0.02%
Lucifer Yellow leakage (%) Chip Caco-2:HT29-MTX E12 [8]: 0.02%

SMILES: COCCc1ccc(OCC(O)CNC(C)C)cc1 (centres unmarked) [Metoprolol]
TW Caco-2 Papp (apparent permeability coefficient from A B) [1]: 47.63± 5.44 × 10-6 cm/sec
Chip Caco-2:HT29-MTX E12 Papp (apparent permeability coefficient from A B) [3]: 44.99 ± 1.05 × 10-6 cm/sec
Chip Caco-2 Papp (apparent permeability coefficient from A B) [4]: 17.67± 4.98 × 10-6 cm/sec
Lucifer Yellow leakage (%) Chip Caco-2 [6]: 0.02%
Lucifer Yellow leakage (%) Transwell [7]: 0.02%
Lucifer Yellow leakage (%) Chip Caco-2:HT29-MTX E12 [8]: 0.09%

SMILES: CC(C)NCC(O)COc1cccc2ccccc12 (centres unmarked) [Propranolol]
TW Caco-2 Papp (apparent permeability coefficient from A B) [1]: 101.68± 23.00 × 10-6 cm/sec
Chip Caco-2:HT29-MTX E12 Papp (apparent permeability coefficient from A B) [3]: 86.05 ± 21.67 × 10-6 cm/sec
Chip Caco-2 Papp (apparent permeability coefficient from A B) [4]: 71.42± 5.08 × 10-6 cm/sec
Lucifer Yellow leakage (%) Chip Caco-2 [6]: 0.03%
Lucifer Yellow leakage (%) Transwell [7]: 0.02%
Lucifer Yellow leakage (%) Chip Caco-2:HT29-MTX E12 [8]: 0.03%

SMILES: C=C[C@H]1C[N@@]2CC[C@H]1C[C@@H]2[C@@H](O)c1ccnc2ccc(OC)cc12 [Quinidine]
Transport route [5, 11]: Transcellular

SMILES: CNC(=C[N+](=O)[O-])NCCSCc1ccc(CN(C)C)o1 [Rantidine]
TW Caco-2 Papp (apparent permeability coefficient from A B) [1]: 3.22± 0.93 × 10^-6 cm/sec
FA in human % (fraction absorbed in human) [2, 10]: 50%
Chip Caco-2:HT29-MTX E12 Papp (apparent permeability coefficient from A B) [3]: 2.29 ± 0.27 × 10^-6 cm/sec
Chip Caco-2 Papp (apparent permeability coefficient from A B) [4]: 1.80± 0.27 × 10^-6 cm/sec
Transport route [5, 11]: Paracellular
Lucifer Yellow leakage (%) Chip Caco-2 [6]: 0.02%
Lucifer Yellow leakage (%) Transwell [7]: 0.02%
Lucifer Yellow leakage (%) Chip Caco-2:HT29-MTX E12 [8]: 0.01%

Effect on cell layer (micrographs) ([9]; 40 mM SNAC): partial removal of cell layer
SMILES: O=C([O-])CCCCCCCNC(=O)c1ccccc1O.[Na+] [SNAC, salcaprozate sodium]
Effect on cell layer ([9]; SNAC 20 mM or 40 mM with semaglutide-Cy3 5 µM, approx. 4 h, bright field and dextran): irreversible damage to the cell layer

SMILES: CC(C)(C)NCC(O)c1cc(O)cc(O)c1 (centres unmarked) [Terbutaline]
TW Caco-2 Papp (apparent permeability coefficient from A B) [1]: 1.85± 0.10 × 10-6 cm/sec
FA in human % (fraction absorbed in human) ([2]; in vivo): 44%
Chip Caco-2:HT29-MTX E12 Papp (apparent permeability coefficient from A B) [3]: 5.09 ± 0.06 × 10-6 cm/sec
Chip Caco-2 Papp (apparent permeability coefficient from A B) [4]: 7.11± 0.43 × 10-6 cm/sec
Transport route [5]: Paracellular
Lucifer Yellow leakage (%) Chip Caco-2 [6]: 0.02%
Lucifer Yellow leakage (%) Transwell [7]: 0.02%
Lucifer Yellow leakage (%) Chip Caco-2:HT29-MTX E12 [8]: 0.01%

SMILES: CC(=O)CC(c1ccccc1)c1c(O)c2ccccc2oc1=O (centres unmarked) [Warfarin]
TW Caco-2 Papp (apparent permeability coefficient from A B) [1]: 0.00024341 cm/s
Chip Caco-2:HT29-MTX E12 Papp (apparent permeability coefficient from A B) [3]: 0.00030039 cm/s
Chip Caco-2 Papp (apparent permeability coefficient from A B) [4]: 160.97± 40.49 × 10-6 cm/sec
Lucifer Yellow leakage (%) Transwell [7]: 0.02%

Source: paper PMC9500407, “Quantifying the transport of biologics across intestinal barrier models in real-time by fluorescent imaging” (Frontiers in Bioengineering and Biotechnology, 2022)
